The text below walks through data of patent US5663152A, “Potentiators for aminoglycosides” (Asahi Kasei Kogyo Kabushiki Kaisha, priority 1995, dated 1997).

For data set [1] the following is noted: in words; cited from earlier work.
For data set [2], the system named is Methicillin-resistant Staphylococcus aureus (ATCC 33591). The data set is described as follows: Minimum inhibitory concentration by broth dilution, MRSA (ATCC 33591). The data set is classed as cell-based. The note with it: substance alone, 2 days at 37° C.; for MIC: Staphylococcus aureus, 48 h. From the text: (§1) Microorganism strains were supplied by the ATCC. Staphylococcus aureus is a clinically significant member of the gram-positive group of bacterial pathogens. It gives rise to serious infections, and may produce bacteremia, endocarditis, and meningitis. Methicillin-resistant strains of Staphylococcus aureus were chosen for evaluation because they present a significant medical problem, in view of the fact that methicillin is the drug of choice for treatment of S. aureus infection in the common penicillin-resistant strains.
(§2) The MICs were determined by the broth dilution method (Kubo et al. J. Agric. Food Chem. 1992, 40, 245-248). Test compounds were dissolved in Di-Methyl Formamide("DMF") to make stock solution at concentrations of 80, 40, 20, or 10 mg/ml depending upon the potency and solubility. An aliquot of 0.01 ml of the stock solution was added to a tube containing 0.99 ml of media to get the initial concentration of testing solution. Serial two-fold dilutions were made by mixing 0.5 ml of testing solution with 0.5 ml of blank medium. A 0.5 ml aliquot of diluted inoculum containing an appropriate concentration of the test microorganism (1:100 dilution of the initial inoculum) was then added into each tube containing 0.5 ml serial dilutions of the test compound. After incubating for 2 days at 37° C., the tube was evaluated for visible growth. The MIC was determined as the lowest concentration of a compound which prevented visible microorganism growth. A culture growth control without compound (solvent only) and several culture sensitive reference agents were used as positive controls. The assays were performed in duplicate.
(Broth dilution looks for growth in wells or tubes with falling amounts of substance.)

The test system is the same in data set [3]. The data set is described as follows: Minimum biocidal concentration, MRSA (ATCC 33591). The conditions noted are these: substance alone, >99.9 percent decrease of inoculum; for MBC: Staphylococcus aureus. The class given is cell-based.
Excerpt: as §1
(§3) After determining the MIC, 0.1 ml of a ten-fold dilution from each tube showing no turbidity was plated onto chemical free nutrient agar plates. After 24 hours of incubation, the colonies were counted. The MBC was the lowest concentration of antibacterial compound that decreased the initial inoculum population by >99.9 percent. The initial population for E. coli. was 1×10^7 -6×10^7 colony forming units (CFU) per ml; for P. aeruginosa was 1×10^6 -5×10^6 CFU per ml; and for methicillin-resistant Staphylococcus aureus (MRSA) was 2×10^6 -7×10^6 CFU per ml.

Data set [4] deals with gram-negative and gram-positive organisms. The note with it: in words, cited from earlier work.
Data set [5] relates to Escherichia coli (ATCC 10536). Kind of data set: Minimum biocidal concentration, Escherichia coli (ATCC 10536). The class given is cell-based. The conditions noted are these: for MBC: Escherichia coli.
Excerpt: as §1
(§4) Escherichia coli is also a gram-negative pathogenic bacillus which may cause enteritis, peritonitis, or cystitis.
as §3

Data set [6] deals with Escherichia coli (ATCC 10536). The data set is described as follows: Minimum inhibitory concentration by broth dilution, Escherichia coli (ATCC 10536). The data set is classed as cell-based. The note with it: for MIC: Escherichia coli, ATCC10536, 48 h, read-out: MIC Alone.
Excerpt: as §1, §4, §2

Data set [7] concerns Pseudomonas aeruginosa (ATCC 10145). The data set is described as follows: Minimum biocidal concentration, Pseudomonas aeruginosa (ATCC 10145). The data set is classed as cell-based. The note with it: for MBC: Pseudomonas aeruginosa, ATCC10145, read-out: MBC Alone.
Excerpt: as §1
(§5) Pseudomonas aeruginosa was also chosen for evaluation. P. aerugtnosa is a gram-negative pathogenic bacillus which may cause urinary tract infections or pneumonia.
as §3

Data set [8] has the same test system. The data set is described as follows: Minimum inhibitory concentration by broth dilution, Pseudomonas aeruginosa (ATCC 10145). The data set is classed as cell-based. The note with it: for MIC: Pseudomonas aeruginosa, ATCC10145, 48 h, read-out: MIC Alone.
Excerpt: as §1, §5, §2

For data set [9] the following is noted: occurring in foods, routinely consumed in the diet; in words; cited from earlier work.
Data set [10] concerns aminoglycoside-inactivating enzymes. The conditions noted are these: in words; cited from earlier work.
Setting [11] is: MRSA ATCC 33591, read-out: MIC Alone.
The mark [12] stands for this setting: MRSA ATCC 33591, read-out: MBC Alone.
The mark [13] stands for this setting: read-out: MIC Alone, MRSA ATCC 33591.
The mark [14] stands for this setting: read-out: MBC Alone, MRSA ATCC 33591.
Where [15] appears, read: E. coli ATCC 10536, substance alone, 2 days at 37° C.

Converted amounts (≈) assume the structure as drawn. Read-outs that look alike come from different tables or passages of the source. Where only a bound is given, the exact number is not on record here.

The term MIC denotes the lowest concentration found to suppress growth. The term MBC denotes the smallest concentration meeting the test's criterion for killing. Turning to `NC[C@H]1O[C@H](O[C@H]2[C@H](O)[C@@H](O[C@H]3O[C@H](CO)[C@@H](O)[C@H](N)[C@H]3O)[C@H](N)C[C@@H]2N)[C@H](N)C[C@@H]1O` [Tobramycin], the side effects result in [1] is “strong side effects, such as nephrotoxicity, ototoxicity, or neuromuscular blockade”. In addition, the MIC in data set [2] (setting [11]) turned out to be 800 mg/L (≈ 1.71 mM). Also, the MBC in data set [3] (setting [12]) worked out at 1600 mg/L (≈ 3.42 mM). Also, in [4] (in vitro tests), the mode of action result is “bactericidal and that it acts by interfering with protein synthesis in bacterial cells”. Besides, the “antibacterial activity in vitro” value in data set [4] was “broad range of activity against gram-negative and gram-positive organisms”.
Turning to `c1ccc2[nH]ccc2c1` [Indole, indole], the MBC came to 800 mg/L (≈ 6.83 mM) in data set [5] (ATCC10536, read-out: MBC Alone); 1600 mg/L (≈ 13.7 mM) in data set [3] (setting [14]); 800 mg/L (≈ 6.83 mM) in [7]. Besides, the figures for the minimum inhibitory concentration (MIC) in [6], in data set [2] (setting [13]) and in [8] were 800 mg/L (≈ 6.83 mM), 800 mg/L (≈ 6.83 mM) and 400 mg/L (≈ 3.41 mM), respectively. For the same compound, the toxicity of potentiators entry in [9] was “routinely consumed in the diet without apparent harm”.
Turning to `CC=Cc1ccc(OC)cc1` [Anethole, anethole], the MBC in data set [5] (ATCC10536, E. coli ATCC 10536, substance alone, >99.9 percent decrease of inoculum, read-out: MBC Alone) is 800 mg/L (≈ 5.4 mM); in data set [3] (setting [12]) it was more than 1600 mg/L. In addition, the minimal inhibitory concentration (MIC) is 400 mg/L (≈ 2.7 mM) in data set [6] (setting [15]) and more than 1600 mg/L in data set [2] (setting [11]). Besides, the toxicity of potentiators result in [9] is on record as “routinely consumed in the diet without apparent harm”.
Regarding `CCCC=CC=O` [2-Hexenal, 2-hexenal], the MBC in [5] (ATCC10536, read-out: MBC Alone) came out at 200 mg/L (≈ 2.04 mM); in data set [3] (setting [14]), 800 mg/L (≈ 8.15 mM); in data set [7], 200 mg/L (≈ 2.04 mM). Also, the MIC in [6] was 200 mg/L (≈ 2.04 mM); in data set [2] (setting [13]) it was 400 mg/L (≈ 4.08 mM); in data set [8], 200 mg/L (≈ 2.04 mM). Also, in data set [2] (MRSA ATCC 33591), the “MIC Alone” value worked out at 200 mg/L (≈ 2.04 mM). Further, in data set [3] (MRSA ATCC 33591), the “MBC Alone” value stood at 400 mg/L (≈ 4.08 mM). Also, the toxicity of potentiators result in data set [9] is “routinely consumed in the diet without apparent harm”.
For Gentamicin [reference compound], the side effects result in data set [1] is “strong side effects, such as nephrotoxicity, ototoxicity, or neuromuscular blockade”. Also, the “MBC Alone” value in data set [5] (E. coli ATCC 10536, substance alone, >99.9 percent decrease of inoculum) was 0.78 mg/L; in data set [3] (MRSA ATCC 33591) it was 1.56 mg/L; in data set [7] (P. aeruginosa ATCC 10145, substance alone, >99.9 percent decrease of inoculum) it was 0.78 mg/L. Besides, the “MIC Alone” value in [6] (setting [15]) was found to be 0.78 mg/L; in data set [2] (MRSA ATCC 33591) it was 1.56 mg/L; in [8] (P. aeruginosa ATCC 10145, substance alone, 2 days at 37° C.) it was 0.39 mg/L.
Regarding `NCC[C@H](O)C(=O)N[C@@H]1C[C@H](N)[C@@H](O[C@H]2O[C@H](CN)[C@@H](O)[C@H](O)[C@H]2O)[C@H](O)[C@H]1O[C@H]1O[C@H](CO)[C@@H](O)[C@H](N)[C@H]1O` [Amikacin], the side effects result in [1] is recorded as “strong side effects, such as nephrotoxicity, ototoxicity, or neuromuscular blockade”. In [2] (setting [11]), the minimum inhibitory concentration (MIC) turned out to be 200 mg/L (≈ 0.342 mM). The MBC in [3] (setting [12]) was 200 mg/L (≈ 0.342 mM). The “antibacterial activity in vitro” value in data set [4] is “broad range of activity against gram-negative and gram-positive organisms”. Further, the “degradation by aminoglycoside-inactivating enzymes” value in data set [10] is listed as “resists degradation by most aminoglycoside-inactivating enzymes”.
